Tested on: cytokine, chemokine and angiogenic factors (blood biomarkers)
Assay: Serum blood biomarkers (cytokine, chemokine and angiogenic factors) by ELISA and multiplex kits, pre- and post-treatment with E7080
Assay type: in vivo, human
Description: Patients received E7080 at a dose of 24 mg oral once daily in 28 day cycles. […] 7.5 mL of blood was drawn into serum […] tube (SST) and let to clot at room temperature for at least 30 min. Within 60 minutes of sample collection, the tubes were centrifuged for 10 minutes at 20-25° C. at 1400×g. The supernatant was drawn without disturbing the pellet and the serum was mixed and divided into two sample tubes and stored frozen (−70° C.) at an upright position until further treatment for analysis. Serum samples from 58 patients were used for blood biomarker analysis. […] The association of progression free survival with or without a covariate was analyzed. The covariates used are the following PK parameters: cycle 1 day 1 Cmax (E7080 concentration 2 hr after dosing on cycle 1 day 1: MAX1); cycle 1 day 1 Ctrough (E7080 concentration before dosing on cycle1 day 8: MIN1); cycle 2 day 1 Cmax (E7080 concentration 2 hrs after dosing on cycle 2 day 1: MAX2); cycle 2 day 1 Ctrough (E7080 concentration before dosing on cycle 2 day 1: MIN2). Serum samples were tested in batch format where all timepoints from the same subject were assayed on the same day. On the day of assay, samples were removed from −80° C. and allowed to thaw and reach room temperature. The serum samples were tested using the following commercial assay kits as per the manufacturer's instructions: Human Soluble Tie-2 ELISA (R&D Systems Cat. No. DTE200), Human Angiopoietin-1 ELISA (R&D Systems Cat. No. DANG10), Human FGF23 ELISA, Human SDF-1a ELISA. Human Angiopoietin-2 ELISA (R&D Systems Cat. No. DANG20), Human Soluble Receptor Multiplex (Millipore Cat. No. HSCR-32K; sVEGF R1, sVEGF R2 and sVEGF R3 only), Human Cytokine/Chemokine Panel I Multiplex (Millipore Cat. No. MPXHCYTO-60K; IL-1α, IL-1β, IL-1ra, IL-2, IL-4, IL-5, IL-6, IL-7, IL-8, IL-10, IL-12p40, IL-12p70, IL-13, IL-15, IL-17, sCD40L, EGF, Eotaxin, FGF-2, G-CSF, GM-CSF, IFN-γ, IP-10, MCP-1, MIP-1α, MIP-1β, PDGF-AA, RANTES, TGF-α, TNF-α and VEGF only) and Human Growth Factor Multiplex (Origene TruPLEX Cat. No. AM100096; PDGF-AB, PDGF-BB, FGF4, VEGFD, FGF2, EGF, HGF, FLT3LG, ANGPT2, PGF and VEGFA).
The ELISA plates were measured using a Molecular Devices UVmax kinetic microplate reader with SoftMax Pro 5.2 software. The multiplex assays were performed using the Bio-Rad Bio-Plex system with Bio-Plex Manager 4.1 software. Final protein concentrations (pg/mL) were calculated from the standard curve for each assay. Depending on the assay, serum samples may have been diluted in assay buffer prior to testing. In these cases, protein concentrations were multiplied by the dilution factor.
From 58 patient samples, between 27 and 49 pre- and post-treatment blood samples were used for analyses.

Structure (SMILES): COc1cc2nccc(Oc3ccc(NC(=O)NC4CC4)c(Cl)c3)c2cc1C(N)=O [E7080, 4-(3-chloro-4-(cyclopropylaminocarbonyl)aminophenoxy)-7-methoxy-6-quinolinecarboxamide]
- sVEGFR1 fold change (median) (CYCLE 1 DAY 8 vs CYCLE 1 DAY 1): 0.92
- sVEGFR2 fold change (median) (CYCLE 1 DAY 8 vs CYCLE 1 DAY 1): 0.676
- FGF2 (79) ratio (Median), PR group (CYCLE 2 DAY 2/CYCLE 1 DAY 8): 1.132
- FGF2 (79) ratio (Median), others (SD or PD) (CYCLE 2 DAY 2/CYCLE 1 DAY 8): 0.978
- GM-CSF ratio (Median), PR group (CYCLE 2 DAY 2/CYCLE 1 DAY 8): 1.051
- GM-CSF ratio (Median), others (SD or PD) (CYCLE 2 DAY 2/CYCLE 1 DAY 8): 0.876
- HGF (86) ratio (Median), PR group (CYCLE 2 DAY 2/CYCLE 1 DAY 8): 0.789
- HGF (86) ratio (Median), others (SD or PD) (CYCLE 2 DAY 2/CYCLE 1 DAY 8): 1.087
- Tie-2 ratio (Median), PR group (CYCLE 2 DAY 2/CYCLE 1 DAY 8): 0.791
- Tie-2 ratio (Median), others (SD or PD) (CYCLE 2 DAY 2/CYCLE 1 DAY 8): 0.852
- VEGFA (100) ratio (Median), PR group (CYCLE 2 DAY 2/CYCLE 1 DAY 8): 0.899
- VEGFA (100) ratio (Median), others (SD or PD) (CYCLE 2 DAY 2/CYCLE 1 DAY 8): 1.172
- ANG2 (90) serum level post treatment (median) (CYCLE 2 DAY 8): 600.6 pg/mL
- Ang-2 serum level post treatment (median) (CYCLE 2 DAY 8): 1533 pg/mL
- EGF (80) serum level post treatment (median) (CYCLE 2 DAY 8): 875.8 pg/mL
- EGF serum level post treatment (median) (CYCLE 2 DAY 8): 75.9 pg/mL
- Eotaxin serum level post treatment (median) (CYCLE 2 DAY 8): 177 pg/mL
- G-CSF serum level post treatment (median) (CYCLE 2 DAY 8): 61.3 pg/mL
- IL-6 concentration (Median), PR group (CYCLE 2 DAY 8): 8.2 pg/mL
- IL-6 concentration (Median), others (SD or PD) (CYCLE 2 DAY 8): 33.9 pg/mL
- IL-6 serum level post treatment (median) (CYCLE 2 DAY 8): 15 pg/mL
- IL-8 serum level post treatment (median) (CYCLE 2 DAY 8): 31.4 pg/mL
- IP-10 serum level post treatment (median) (CYCLE 2 DAY 8): 602.8 pg/mL
- MCP-1 serum level post treatment (median) (CYCLE 2 DAY 8): 618.0 pg/mL
- PGF (91) serum level post treatment (median) (CYCLE 2 DAY 8): 46.0 pg/mL
- SDF-1a serum level post treatment (median) (CYCLE 2 DAY 8): 3529.5 pg/mL
- Tie-2 serum level post treatment (median) (CYCLE 2 DAY 8): 26220 pg/mL
- VEGFA (100) serum level post treatment (median) (CYCLE 2 DAY 8): 212.5 pg/mL
- sVEGFR1 serum level post treatment (median) (CYCLE 2 DAY 8): 341.5 pg/mL
- sVEGFR2 serum level post treatment (median) (CYCLE 2 DAY 8): 13352.1 pg/mL
- sVEGFR3 serum level post treatment (median) (CYCLE 2 DAY 8): 4030.9 pg/mL
- Eotaxin ratio (Median), PR group (CYCLE 2 DAY 8/CYCLE 1 DAY 1): 1.541
- Eotaxin ratio (Median), others (SD or PD) (CYCLE 2 DAY 8/CYCLE 1 DAY 1): 1.242
- IP-10 ratio (Median), PR group (CYCLE 2 DAY 8/CYCLE 1 DAY 1): 1.547
- IP-10 ratio (Median), others (SD or PD) (CYCLE 2 DAY 8/CYCLE 1 DAY 1): 1.151
- ANG2 (90) fold change (median) (CYCLE 2 DAY 8 vs CYCLE 1 DAY 1): 0.586
- Ang-2 fold change (median) (CYCLE 2 DAY 8 vs CYCLE 1 DAY 1): 0.618
- EGF (80) fold change (median) (CYCLE 2 DAY 8 vs CYCLE 1 DAY 1): 1.17
- EGF fold change (median) (CYCLE 2 DAY 8 vs CYCLE 1 DAY 1): 0.808
- Eotaxin fold change (median) (CYCLE 2 DAY 8 vs CYCLE 1 DAY 1): 1.363
- G-CSF fold change (median) (CYCLE 2 DAY 8 vs CYCLE 1 DAY 1): 1.215
- IL-6 fold change (median) (CYCLE 2 DAY 8 vs CYCLE 1 DAY 1): 1.299
- IL-8 fold change (median) (CYCLE 2 DAY 8 vs CYCLE 1 DAY 1): 1.205
- IP-10 fold change (median) (CYCLE 2 DAY 8 vs CYCLE 1 DAY 1): 1.382
- MCP-1 fold change (median) (CYCLE 2 DAY 8 vs CYCLE 1 DAY 1): 1.086
- PGF (91) fold change (median) (CYCLE 2 DAY 8 vs CYCLE 1 DAY 1): 3.05
- SDF-1a fold change (median) (CYCLE 2 DAY 8 vs CYCLE 1 DAY 1): 1.345
- Tie-2 fold change (median) (CYCLE 2 DAY 8 vs CYCLE 1 DAY 1): 0.766
- VEGFA (100) fold change (median) (CYCLE 2 DAY 8 vs CYCLE 1 DAY 1): 1.426
- sVEGFR1 fold change (median) (CYCLE 2 DAY 8 vs CYCLE 1 DAY 1): 0.805
- sVEGFR2 fold change (median) (CYCLE 2 DAY 8 vs CYCLE 1 DAY 1): 0.499
- sVEGFR3 fold change (median) (CYCLE 2 DAY 8 vs CYCLE 1 DAY 1): 0.843

From patent US9945862B2, “Biomarkers for predicting and assessing responsiveness of thyroid and kidney cancer subjects to lenvatinib compounds” (Eisai R&D Management Co., Ltd., priority 2011, dated 2018)
